Here are results for one molecule from patent publication US20240050392A1, “COMPOSITIONS AND METHODS FOR IMPROVED TREATMENT OF PLATINUM-BASED CHEMOTHERAPEUTIC RESISTANT TUMORS” (THE REGENTS OF THE UNIVERSITY OF THE COLORADO, A BODY …, priority 2021, published 2024).

For data set [1], the target named is T1, volume regulated anion channel (VRAC), LRRC8A and LRRC8D (Homo sapiens, UniProt Q7L1W4+Q8IWT6).
T1 sequence (Q8IWT6 1-810): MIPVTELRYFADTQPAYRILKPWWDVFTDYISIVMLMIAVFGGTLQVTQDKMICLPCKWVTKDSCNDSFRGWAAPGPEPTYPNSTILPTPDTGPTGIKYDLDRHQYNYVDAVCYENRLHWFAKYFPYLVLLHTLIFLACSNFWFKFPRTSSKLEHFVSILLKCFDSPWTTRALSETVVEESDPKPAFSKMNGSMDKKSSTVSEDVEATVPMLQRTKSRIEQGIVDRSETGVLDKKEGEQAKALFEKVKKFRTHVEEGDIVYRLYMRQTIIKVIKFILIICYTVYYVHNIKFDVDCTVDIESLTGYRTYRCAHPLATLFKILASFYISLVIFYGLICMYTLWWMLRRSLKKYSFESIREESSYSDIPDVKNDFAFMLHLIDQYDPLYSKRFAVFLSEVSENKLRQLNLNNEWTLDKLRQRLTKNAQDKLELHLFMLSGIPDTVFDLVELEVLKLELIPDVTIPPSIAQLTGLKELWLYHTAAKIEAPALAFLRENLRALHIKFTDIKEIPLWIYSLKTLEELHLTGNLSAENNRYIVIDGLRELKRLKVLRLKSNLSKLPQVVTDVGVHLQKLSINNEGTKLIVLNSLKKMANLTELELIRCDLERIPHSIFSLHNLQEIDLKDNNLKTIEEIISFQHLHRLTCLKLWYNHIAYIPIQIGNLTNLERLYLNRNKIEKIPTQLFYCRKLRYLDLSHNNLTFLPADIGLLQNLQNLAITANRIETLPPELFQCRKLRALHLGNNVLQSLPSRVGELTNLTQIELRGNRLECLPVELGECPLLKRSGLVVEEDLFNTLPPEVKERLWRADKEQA
T1 sequence (Q7L1W4 1-858): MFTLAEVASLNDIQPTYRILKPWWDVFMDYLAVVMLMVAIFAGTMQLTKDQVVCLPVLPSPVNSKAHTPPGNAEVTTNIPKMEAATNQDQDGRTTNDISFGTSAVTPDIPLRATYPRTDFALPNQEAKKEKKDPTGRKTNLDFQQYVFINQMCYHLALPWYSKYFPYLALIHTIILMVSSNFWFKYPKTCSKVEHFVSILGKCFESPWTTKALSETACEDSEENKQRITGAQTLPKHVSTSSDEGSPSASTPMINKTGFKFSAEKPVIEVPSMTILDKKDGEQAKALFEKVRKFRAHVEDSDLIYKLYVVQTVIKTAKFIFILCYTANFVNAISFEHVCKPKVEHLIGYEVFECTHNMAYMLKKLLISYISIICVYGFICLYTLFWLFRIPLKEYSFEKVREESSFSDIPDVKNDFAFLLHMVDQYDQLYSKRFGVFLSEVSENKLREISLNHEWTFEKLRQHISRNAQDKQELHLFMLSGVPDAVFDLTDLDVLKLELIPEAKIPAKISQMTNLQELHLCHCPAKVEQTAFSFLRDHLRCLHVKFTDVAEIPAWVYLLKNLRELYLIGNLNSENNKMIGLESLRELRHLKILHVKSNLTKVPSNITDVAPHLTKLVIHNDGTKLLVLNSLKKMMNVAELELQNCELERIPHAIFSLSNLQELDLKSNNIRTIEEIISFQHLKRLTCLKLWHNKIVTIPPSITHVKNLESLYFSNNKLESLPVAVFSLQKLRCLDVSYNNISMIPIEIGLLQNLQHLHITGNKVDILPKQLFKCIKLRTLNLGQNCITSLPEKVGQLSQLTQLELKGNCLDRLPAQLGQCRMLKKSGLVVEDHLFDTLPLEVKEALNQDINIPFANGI
Conditions: as reported; cited from earlier work.

The next data set has as its system KU1919-GemCis cells. Description: Metabolomics of intracellular taurine. It counts as cell-based, human. As to conditions: KU1919-GemCis cells with knockdown of NPEPPS, 10 μM cisplatin. The method, then: Given that VRACs transport cisplatin and carboplatin and finding NPEPPS in complex with VRAC subunits (FIGS. 4C-4D), NPEPPS may be a negative regulator of VRAC activity, consequently reducing import of intracellular cisplatin. Thus, the impact of NPEPPS on osmolytes known to be transported through VRACs was assessed.
Metabolomics. Sample preparation. Cell lines were cultured for several passages in IMDM+10% FBS (IMDM10). Prior to experiment, cells were cultured in IMDM10 to ˜80% confluence and then dissociated. For dissociation, cells were washed once with room temperature PBS and then incubated with PBS+0.05% Trypsin-EDTA for 10-15 minutes. Cells were neutralized with IMDM10 and then fully dissociated by gentle pipetting. After dissociation, cells were counted by Trypan blue staining and then replated at 1×10^6 cells. 24 hours after plating, cells were treated with either IMDM10 or IMDM10+10 μM cisplatin. Day 0 cell cultures were immediately processed for metabolomics analysis. […] Cells were suspended in PBS, centrifuged a second time, and then resuspended in PBS and counted. […]
Data generation and analysis. […] Supernatants were clarified by centrifugation (10 minutes, 18,000 g, 4° C.) and 10 μL analyzed using a Thermo Vanquish UHPLC coupled to a Thermo Q Exactive mass spectrometer. […]

For `N.N.[Cl][Pt][Cl]` [cisplatin], in data set [1], the “share of intracellular cisplatin transported through VRAC channels” value is reported as 50-70%. Besides, in the data set with KU1919-GemCis cells, the “intracellular levels of taurine” value is reported as “reduced even further”.
